From ChEMBL document CHEMBL2311398 (J Med Chem, 2013)

Columns and labels:
[1] = molecular target: T1, Motilin receptor (Homo sapiens, UniProt O43193); assay: Antagonist activity at MLNR (unknown origin)
[2] = molecular target: Growth hormone secretagogue receptor type 1 (Homo sapiens, UniProt Q92847); assay: Agonist activity at GHSR (unknown origin)
[3] = molecular target: T1, Motilin receptor; assay: Agonist activity at MLNR (unknown origin)

T1 sequence (O43193 whole entry): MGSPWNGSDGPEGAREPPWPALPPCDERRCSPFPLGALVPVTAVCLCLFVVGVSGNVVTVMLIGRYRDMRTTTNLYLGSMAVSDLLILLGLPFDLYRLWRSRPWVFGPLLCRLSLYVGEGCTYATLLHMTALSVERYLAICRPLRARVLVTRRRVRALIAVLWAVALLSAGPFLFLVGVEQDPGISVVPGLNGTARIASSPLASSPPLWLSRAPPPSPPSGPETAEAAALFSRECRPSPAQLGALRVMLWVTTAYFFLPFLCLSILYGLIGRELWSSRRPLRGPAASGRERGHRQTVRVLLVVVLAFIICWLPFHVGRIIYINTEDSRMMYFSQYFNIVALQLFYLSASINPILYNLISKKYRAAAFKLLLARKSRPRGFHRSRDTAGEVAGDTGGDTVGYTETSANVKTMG
Chain of Growth hormone secretagogue receptor type 1 (Q92847 whole entry): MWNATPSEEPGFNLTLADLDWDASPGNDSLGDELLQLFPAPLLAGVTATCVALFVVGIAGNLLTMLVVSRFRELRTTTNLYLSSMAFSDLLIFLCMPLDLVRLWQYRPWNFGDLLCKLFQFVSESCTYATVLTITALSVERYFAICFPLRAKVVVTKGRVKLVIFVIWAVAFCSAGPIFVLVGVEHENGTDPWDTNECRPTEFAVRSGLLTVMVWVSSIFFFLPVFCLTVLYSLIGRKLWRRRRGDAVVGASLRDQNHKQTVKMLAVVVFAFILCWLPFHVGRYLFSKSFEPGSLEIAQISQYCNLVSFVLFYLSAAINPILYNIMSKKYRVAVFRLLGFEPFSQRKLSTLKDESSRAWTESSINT

Row | SMILES | IC50 [1] [nM] | further results
1 | CC[C@H]1OC(=O)[C@H](C)[C@@H](O[C@H]2C[C@@](C)(OC)[C@@H](O)[C@H](C)O2)[C@H](C)[C@@H](O[C@@H]2O[C@H](C)C[C@H](N(C)C(C)C)[C@H]2O)[C@]2(C)CC(C)=C(O2)[C@H](C)C(=O)[C@]1(C)OC | 3.98 | 
2 | COc1cccc(CCN(Cc2ccccc2-c2ccc(CN3C[C@@H](C)N[C@@H](C)C3)cc2)C(=O)NC2CCCCC2)c1 |  | EC50 [2]: 126 nM
3 | C[C@@H]1CN(Cc2ccc(-c3cccnc3C(=O)N3CCC(Nc4ccc(F)cc4)CC3)cc2)C[C@H](C)N1 | 3.98 | 
4 | CCNC(=O)[C@H](Cc1ccc(O)c(C(C)(C)C)c1)C(N)C(=O)[C@H](C(C)C)N(C)C(=O)[C@H](Cc1ccc(F)cc1)NC (some centres undefined) |  | Ki [3]: 2.63 nM
